The record followed here is patent EP0019937B1, “A method for producing alcohol oxidase, alcohol oxidase, enzyme preparation and a method for determining the concentration of a compound in an alcohol-containing sample” (PHILLIPS PETROLEUM COMPANY, priority 1979, dated 1980).

Data set [1] deals with T1, alcohol oxidase from Pichia pastoris (Komagataella phaffii, UniProt P04842).
T1 construct: preparation and isolation of pure crystalline alcohol oxidase from Pichia pastoris; endogenous in cells; homogenate supernatant dialysed to give crystalline enzyme
T1 sequence (P04842 1-663): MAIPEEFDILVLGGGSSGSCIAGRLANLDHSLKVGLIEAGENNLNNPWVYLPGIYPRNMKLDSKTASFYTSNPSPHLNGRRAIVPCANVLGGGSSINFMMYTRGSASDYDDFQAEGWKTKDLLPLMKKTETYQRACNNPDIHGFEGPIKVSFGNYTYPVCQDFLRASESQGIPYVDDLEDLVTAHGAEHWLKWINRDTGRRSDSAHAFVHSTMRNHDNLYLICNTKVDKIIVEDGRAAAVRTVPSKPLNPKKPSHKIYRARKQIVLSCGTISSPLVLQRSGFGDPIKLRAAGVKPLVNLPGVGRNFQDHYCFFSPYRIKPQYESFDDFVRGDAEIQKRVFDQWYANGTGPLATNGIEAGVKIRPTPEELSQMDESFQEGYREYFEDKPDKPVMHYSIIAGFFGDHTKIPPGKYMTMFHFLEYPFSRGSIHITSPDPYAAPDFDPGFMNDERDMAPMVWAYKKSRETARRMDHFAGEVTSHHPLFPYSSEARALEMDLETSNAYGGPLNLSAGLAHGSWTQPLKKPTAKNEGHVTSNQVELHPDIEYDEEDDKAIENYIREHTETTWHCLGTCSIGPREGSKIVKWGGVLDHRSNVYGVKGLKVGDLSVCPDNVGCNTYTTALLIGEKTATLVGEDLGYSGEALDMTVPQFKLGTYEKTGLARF
Briefly: Characteristics of the Pichia enzyme (Km, inhibitors, substrate reactivity). In kind it is biochemical.

Substrate in data set [2]: CO
Description: purified protein, by the assay type. Conditions: other: apparent Michaelis constant; pH 6.5.

As to `CC=O` [acetaldehyde], the “reactivity of the alcohol oxidase toward substrate” value in data set [1] is “not reactive”.
For orientation: Km means the substrate concentration at which the rate is half of its maximum. In the case of `CO` [Methanol], in data set [1] (read-out: Km for methanol, apparent Michaelis constant), the Km is 4 mM.

B1: alcohol oxidase from Pichia pastoris (Komagataella phaffii GS115) (protein)
chain: MAIPEEFDILVLGGGSSGSCIAGRLANLDHSLKVGLIEAGENNLNNPWVYLPGIYPRNMKLDSKTASFYTSNPSPHLNGRRAIVPCANVLGGGSSINFMMYTRGSASDYDDFQAEGWKTKDLLPLMKKTETYQRACNNPDIHGFEGPIKVSFGNYTYPVCQDFLRASESQGIPYVDDLEDLVTAHGAEHWLKWINRDTGRRSDSAHAFVHSTMRNHDNLYLICNTKVDKIIVEDGRAAAVRTVPSKPLNPKKPSHKIYRARKQIVLSCGTISSPLVLQRSGFGDPIKLRAAGVKPLVNLPGVGRNFQDHYCFFSPYRIKPQYESFDDFVRGDAEIQKRVFDQWYANGTGPLATNGIEAGVKIRPTPEELSQMDESFQEGYREYFEDKPDKPVMHYSIIAGFFGDHTKIPPGKYMTMFHFLEYPFSRGSIHITSPDPYAAPDFDPGFMNDERDMAPMVWAYKKSRETARRMDHFAGEVTSHHPLFPYSSEARALEMDLETSNAYGGPLNLSAGLAHGSWTQPLKKPTAKNEGHVTSNQVELHPDIEYDEEDDKAIENYIREHTETTWHCLGTCSIGPREGSKIVKWGGVLDHRSNVYGVKGLKVGDLSVCPDNVGCNTYTTALLIGEKTATLVGEDLGYSGEALDMTVPQFKLGTYEKTGLARF
Consider B1, for which, in data set [2], the Km worked out at 4 mM.
